Consider three compounds from patent publication US9968694B2, “Compositions and methods for non-invasive imaging” (MERRIMACK PHARMACEUTICALS, INC., priority 2012, dated 2018).

The nature of series [1]: Cu complex formation in HS buffer (appearance, precipitation). Type of series: physicochemical. Particulars: 0.1 mM chelator and Cu in HS buffer pH 6.5. Here is the method:
Cu:4-DEAP-ATSC and Cu:ATSM complexes were formed as follows. In 1 mL HS were added 5 μL of 20 mM CuSO4 and 5 μl of 20 mM 4-DEAP-ATSC (in DMSO) or 5 μL of 20 mM ATSM (in DMSO). […] The chelator and Cu concentration was 0.1 mM.

Series [2] can be described thus: Efficiency of ^64Cu:4-DEAP-ATSC loading into liposomes, size exclusion chromatography. Format: physicochemical. Here is the method: The efficiency of liposome loading for Step 2 (see FIG. 3) was determined. […] Encapsulated (liposomal) radioactivity was separated from total radioactivity using size exclusion chromatography. From this it was determined that >90% of the ^64Cu was loaded into the liposome at 4-DEAP-ATSC:lipid ratios <2 mol % as shown in Table 2.

Series [3] is described as follows: ^64Cu chelation efficiency of 4-DEAP-ATSC by instant thin layer chromatography (ITLC). Type of series: physicochemical. An excerpt:
[…] An instant thin layer chromatography (ITLC) assay was used for quantifying the fractions of uncomplexed ^64Cu and ^64Cu(II)-4-DEAP-ATSC complex in the chelation mixture. The uncomplexed ^64Cu can be detected at the solvent front, while the ^64Cu(II)-4-DEAP-ATSC complex remained at the origin where the sample is spotted.

Series [4] can be described thus: Storage stability of 4-DEAP-ATSC formulations (degradation). Format: physicochemical. Here is the method: Various 4-DEAP-ATSC formulations (see Table 10 below) were stored under different conditions. At designated time points, samples were collected where their storage stability were evaluated by functional readouts.
4-DEAP-ATSC was formulated in citrate buffer in a range of pH (pH 4-7). […] At a pH of between 6 and 7, the rates of degradation were very similar, with less than 15% degradation observed over a 4-month period when stored at −20° C. or 4° C.
4-DEAP-ATSC formulated in citrate buffer was stored at 4 different temperatures (−20° C., 4° C., 30° C., and 37° C.). […] (>60%) over a 1-month period. On the other hand, 4-DEAP-ATSC formulations stored at −20° C. and 4° C. can be stably preserved with less than 15% of degradation detected over a period of 4 months.
Various 4-DEAP-ATSC formulations were lyophilized and stored under different conditions to study the effect of lyophilization on their storage stability. […] In addition, mannitol was added to the formulation to serve as a bulking agent for lyophilization.
A set of 4-DEAP-ATSC formulations was filled with argon as an alternative means to improve storage stability of the liquid formulations. […] Significant degradation was still detected in formulations stored at elevated temperatures (30° C. and 37° C.). Additionally, storage stability of inert gas-filled lyophilized formulations was similar to air-filled lyophilized formulations (FIG. 19F).

The conditions of series [5]: over several weeks, cited from earlier work.

Like-named read-outs stand apart in the source and are kept apart here.

As to `CNC(=S)NN=C(C)C(C)=NNC(=S)NC` [ATSM, diacetyl 4-methylthiosemicarbazone, reference compound], the “appearance of Cu complex sample” value in series [1] was “became turbid and developed a brown precipitate”.
For `CCN(CC)CCCNC(=S)NN=C(C)C(C)=NNC(=S)NCCCN(CC)CC` [Sample 4-DEAP-ATSC, diacetyl 4,4′bis (3-(N,N-diethylamino)propyl)thiosemicarbazone], the “^64Cu Loading Efficiency” value in series [2] (4-DEAP-ATSC:Lipid Ratio 0.01% (mol %)) is listed as 96-98%; in series [2] (4-DEAP-ATSC:Lipid Ratio 0.04% (mol %)), 96-98%; in series [2] (4-DEAP-ATSC:Lipid Ratio 0.10% (mol %)) it was 95-97%; in series [2] (4-DEAP-ATSC:Lipid Ratio 0.15% (mol %)) it was 92-97%; in series [2] (4-DEAP-ATSC:Lipid Ratio 0.25% (mol %)), 92-97%; in series [2] (4-DEAP-ATSC:Lipid Ratio 0.40% (mol %)), 94-98%. The “^64Cu Loading Efficiency” value in series [2] (4-DEAP-ATSC:Lipid Ratio 0.50% (mol %)) is on record as 92-96%; in series [2] (4-DEAP-ATSC:Lipid Ratio 0.67% (mol %)), 96%; in series [2] (4-DEAP-ATSC:Lipid Ratio 0.75% (mol %)) it was 92%; in series [2] (4-DEAP-ATSC:Lipid Ratio 1% (mol %)) it was 93-98%; in series [2] (4-DEAP-ATSC:Lipid Ratio 2% (mol %)), 91-97%; in series [2] (4-DEAP-ATSC:Lipid Ratio 4.20% (mol %)), 86%. In addition, the “^64Cu Loading Efficiency” value is 92-93% in series [2] (4-DEAP-ATSC:Lipid Ratio 5.00% (mol %)), 82-92% in series [2] (4-DEAP-ATSC:Lipid Ratio 10% (mol %)), 90% in series [2] (4-DEAP-ATSC:Lipid Ratio 25% (mol %)) and 71% in series [2] (4-DEAP-ATSC:Lipid Ratio 50% (mol %)). In series [2] (4-DEAP-ATSC:lipid ratios <2 mol %), the “^64Cu loaded into the liposome” value is greater than 90%. Moreover, the “Chelation Efficiency” value in series [3] (Specific Radioactivity 0.01 mCi/nmol) is listed as 11-46%; in series [3] (Specific Radioactivity 0.04 mCi/nmol), 98%; in series [3] (Specific Radioactivity 0.07 mCi/nmol), 68-97%; in series [3] (Specific Radioactivity 0.08 mCi/nmol) it was 99%; in series [3] (Specific Radioactivity 0.09 mCi/nmol), 99%; in series [3] (Specific Radioactivity 0.1 mCi/nmol) it was 99-100%. The “Chelation Efficiency” value in series [3] (Specific Radioactivity 0.15 mCi/nmol) was 98-99%; in series [3] (Specific Radioactivity 0.17 mCi/nmol), 96%; in series [3] (Specific Radioactivity 0.18 mCi/nmol), 94%; in series [3] (Specific Radioactivity 0.2 mCi/nmol), 96-99%; in series [3] (Specific Radioactivity 0.3 mCi/nmol) it was 98%; in series [3] (Specific Radioactivity 0.65 mCi/nmol), 99%. The “Chelation Efficiency” value in series [3] (Specific Radioactivity 13.1 mCi/nmol) is reported as 99%. For the same compound, in series [3] (specific radioactivities ranging from 0.07-0.3 mCi/nmol), the efficiency of chelation was 94-99%. The degradation entry in series [4] (citrate buffer pH between 6 and 7, 4-month period, stored at −20° C. or 4° C.) is “less than 15%”; in series [4] (citrate buffer, stored at 30° C. and 37° C., 1-month period), greater than 60%; in series [4] (citrate buffer, stored at −20° C. and 4° C., period of 4 months) it was “less than 15%”. For the same compound, the “effect of inert gas atmosphere on storage stability” value in series [4] (liquid formulations filled with argon) is “did not improve storage stability”. In series [4] (lyophilized formulations), the “effect of lyophilization on storage stability” value is listed as “effective method to inhibit degradation”. Further, the “effect of mannitol on storage stability” value in series [4] (mannitol as bulking agent for lyophilization) was “no effect on the storage stability”. Moreover, the “appearance of Cu complex sample” value in series [1] is on record as “remained clear, without any signs of precipitation”.
In the case of `[Cu]` [copper], the Toxic dose levels in series [5] (65 kg adult) is roughly 154 µg/kg; in series [5], greater than 10 mg/person/day.
